Reference: US5075288A, “Somnogenic fragment of interleukin-1β” (The University of Tennessee Research Corporation, priority 1990, dated 1991)
“Also recorded” adds a separate entry of the source. Residues, ends and D or L forms follow the SMILES beside them.

How the values were obtained:
[1] = test system: male, New Zealand white pasteurella-free rabbits; test: Rabbit sleep (EEG) and body temperature after ICV injection; format: in vivo; conditions: for Colonic Temperature Start: at the time of injection; for Colonic Temperature End: end of 6-h recording session; for NREMS / REMS: six-hour recording period
From the text: A lateral cerebral ventricular guide cannula, a thermistor, and stainless steel screw electroencephalographic (EEG) electrodes were surgically implanted into male, New Zealand white pasteurella-free rabbits (about 3.5 kg). EEG electrodes were placed over the frontal and parietal cortices A 50,000 ohm calibrated thermistor (Model 4018, Omega Engineering, Stamford, Conn.) was implanted over the parietal cortex to measure brain temperature (Tbr). Insulated leads from the screws and the thermistor were routed to an amphenol plug attached to the skull with dental acrylic (DUZ-ALL, Coralite Dental Products, Skokie, Ill.). The guide cannula was placed in the left lateral cerebral ventricle. A minimum of two weeks was allowed for recovery before the animals were habituated to the recording chambers (Hotpack 352600, Philadelphia, Pa.). Food and water were available ad libitum. Each recording chamber contained an electronic swivel (Stoelting, Chicago, Ill.) suspended by a shock-absorbing system. A flexible tether connected the swivel to the Amphenol connector on the rabbit's head, thus allowing freedom of movement. An accelerometer (Grass, SPAI, Quincy, Mass.) attached to the shock-absorbing system provided an indication of body movement. The cables from the swivel and the accelerometer were connected to Grass 7D polygraphs in an adjacent room. The polygraphs recorded EEG, Tbr, and body movement for each animal. The EEG for each rabbit was passed through band-pass filters with the 0.5-3.5 Hz (delta), 4.0-7.5 Hz (theta), 8.0-12.5 Hz (alpha), and 13.0-15.0 Hz (beta) frequency bands rectified and averaged for 1-min intervals by a Buxco model 24/32 data logger (Buxco Electronics, Sharon, Conn.). These values for 1-min periods were used to compute hourly averages. EEG amplitudes in the delta frequency band during 1-min epochs of NREMS for each of the six postinjection hours were also determined. The 10 samples of greatest magnitude in each hour were averaged for each rabbit during control and test NREM sleep periods. […] Tbr S were also recorded using a data logger (Acrosystems 400, Beverly, Mass.), with values for each rabbit sampled at 10-min intervals. NREM sleep and REM sleep were measured as a percent of time over a six-hour recording period. Colonic temperatures (Tco) were taken with a flexible thermistor (YSI, Inc., Yellow Springs, Ohio) at the time of injection and at the end of 6-h recording session. IL1 fragments were dissolved in appropriate volumes of artificial cerebrospinal fluid (aCSF) (2 mM KC1, 1.15 mM CaCl2, and 0.96 mM MgCl2 in pyrogen free saline, […] NaCl [Abbott, N. Chicago, Ill.] Hu-rIL1β was supplied in phosphate-buffered saline (PBS) (0.4 mg/ml). All substances were injected into a lateral cerebral ventricle (ICV). Injection volumes were 12-25 μl per rabbit; each injection lasted about 2 min. Animals were injected between 0900 and 1000 h. Control recordings were obtained from each animal after injection of vehicle (aCSF). After injections, animals were recorded from the next 6 h. Data from all experiments were analyzed with the SPSS^x Information System. Friedman's test for k-related samples was used to test for differences across the 6-h recording periods. If significant differences were indicated, the Wilcoxon matched-pairs signed-ranks test was used to identify the specific hours in which the differences occurred. An alpha level of P<0.05 was accepted as indicating significance.

Murine D10 Cells = test: T cell proliferation assay, [3H] thymidine incorporation in murine T cell line D10; format: cell-based, mouse
Method: Thymus glands were removed from 6-10 week old CD1 mice after mice had been sacrificed by cervical dislocation. Thymocytes were isolated by gently homogenizing the thymus glands in a dounce homogenizer. Thymocytes were suspended in RPMI 1640 containing 7.5% FCS and 5×10-^6 M 2-mercaptoethanol. Aliquots of the cell suspension (100 μl) were dispensed into wells of flat bottom microtiter plates (Linbro Plastics), and samples (50 μl) suspended in RPMI 1640 were added to appropriate wells. Plates were incubated at 37° C., 5% CO2, in a humidified atmosphere for 60 h, and wells were pulsed with [^3 H] thymidine (1 μCi, […]) for 12h. After the 12-h pulse, cells were harvested onto paper filter pads with a multiple-sample harvester, and thymocyte proliferation was determined by scintillation counting. In some experiments, the murine T cell line D10 was used instead of thymocytes as target cells using phytohemmagglutinin (1 μg/ml) as costimulant.

CC[C@H](C)[C@H](NC(=O)[C@H](CCC(=O)O)NC(=O)[C@@H](NC(=O)[C@H](CCCCN)NC(=O)[C@H](CC(N)=O)NC(=O)[C@H](Cc1ccccc1)NC(=O)[C@@H](NC(=O)[C@H](Cc1ccccc1)NC(=O)[C@H](CCCNC(=N)N)NC(=O)[C@H](CCCCN)NC(=O)[C@H](CCC(=O)O)NC(=O)[C@H](CCSC)NC(=O)[C@H](CCCCN)NC(=O)[C@H](CCCCN)NC(=O)[C@@H](N)CCCCN)C(C)C)[C@@H](C)CC)C(=O)N[C@@H](CC(N)=O)C(=O)N[C@@H](CC(N)=O)C(=O)N[C@@H](CCCCN)C(=O)N[C@@H](CC(C)C)C(=O)N[C@@H](CCC(=O)O)C(=O)N[C@@H](Cc1ccccc1)C(=O)N[C@@H](CCC(=O)O)C(=O)N[C@@H](CO)C(=O)N[C@@H](C)C(=O)N[C@@H](CCC(N)=O)C(=O)N[C@@H](Cc1ccccc1)C(=O)N1CCC[C@H]1C(=O)N[C@@H](CC(N)=O)C(=O)N[C@@H](Cc1c[nH]c2ccccc12)C(=O)N[C@@H](Cc1ccc(O)cc1)C(=O)N[C@H](C(=O)N[C@@H](CO)C(=O)N[C@H](C(=O)O)[C@@H](C)O)[C@@H](C)CC [Peptide 208-240] (H-KKKMEKRFVFNKIEINNKLEFESAQFPNWYIST-OH)
abnormal behavior after injection ([1]; 25 μg ICV): no appearance of abnormal behavior; also recorded: did not appear to induce abnormal behavior

199-228: synthetic fragment of IL1β, amino acids 199-228 (ESVDPKNYPKKKMEKRFVFNKIEINNKLEF; UniProt P01584 199-228, looked up, fragment) [Peptide 199-228]
Colonic Temperature Start ([1]; 25 μg ICV): 39.3 (0.1) °C | Colonic Temperature End ([1]; 25 μg ICV): 39.4 (0.1) °C | NREMS ([1]; 25 μg ICV): 50.9 (3.9) percent of time | REMS ([1]; 25 μg ICV): 20.0 (1.2) percent of time | somnogenic and pyrogenic activity: effect on sleep or Tbr (in words) ([1]; ICV, doses of Table 3): failed to alter sleep or Tbr | T cell proliferation (in words) (Murine D10 Cells; murine D10 cells (Table 2)): stimulated T cell proliferation | [3H] Thymidine Incorporation, Murine D10 Cells (Murine D10 Cells; standard deviation in, phytohemmagglutinin 1 μg/ml as costimulant): 2799 (652) counts per minute

IL1β: Recombinant human IL1β prepared by Cistron Biotechnology, Incorporated
Colonic Temperature Start ([1]; 5 ng ICV): 39.2 (0.0) °C | Colonic Temperature End ([1]; 5 ng ICV): 40.0 (0.1) °C | NREMS ([1]; 5 ng ICV): 53.3 (3.2) percent of time | REMS ([1]; 5 ng ICV): 4.4 (0.8) percent of time | Colonic Temperature Start ([1]; 20 ng ICV): 39.3 (0.1) °C | Colonic Temperature End ([1]; 20 ng ICV): 41.0 (0.3) °C | NREMS ([1]; 20 ng ICV): 61.5 (4.3) percent of time | REMS ([1]; 20 ng ICV): 2.1 (0.6) percent of time
